Assay [1] has as its target T1, HDAC4 (Homo sapiens, UniProt P56524).
T1 construct: purchased BPS Bioscience 50064
The assay is described as follows: Fluorogenic HDAC4 activity assay. To be noted: fluorogenic assay kit, in words. The format is biochemical. The method, then:
To measure the effects of MJK-001, -004, -006 and -008 on HDAC4 & 9 activity fluorogenic HDAC9 (#50069) and HDAC4 (#50064) assay kits (BPS Bioscience) were used. Briefly, these assays consist of two steps; in the first one the HDAC fluorometric substrate containing an acetylated lysine side chain is incubated with purified HDAC9. In the second step, the deacetylation sensitizes the substrate so subsequent treatment with the lysine developer produces a fluorophore that was measured by a fluorescence reader.

Assay [2] has as its system RT-112 bladder cancer cells. Kind of assay: Cell viability assay (CellTiter Glo), RT-112. Format: cell-based. On the procedure: (§1) Pancreatic cancer cell lines (MIA PaCa-2 and CAPAN-2) were purchased from ATCC. MIA PaCa-2 were grown in DMEM and CAPAN-2 in McCoy's 5A (Gibco). Colon cancer cell lines (SW480 and HT-29) were purchased from ATCC. SW480 were grown in Leibovitz's L-15 (ATCC) and HT-29 in McCoy's 5A (Gibco). Lung cancer cell lines (NCI 460 and NCI 1975) were purchased from ATCC and grown in RPMI 1640 (Gibco). PC-3 prostate cancer cell line was purchased from ATCC and grown in F-12K (ATCC). Bladder cancer cell line 5637 was purchased from ATCC and RT-112 was purchased from Sigma-Aldrich and was grown in RPMI 1640 (Gibco). Bladder cancer cell lines, UMUC-9, UMUC-15 and UMUC-7 were purchased from MD Anderson and were grown in EMEM (ATCC). Bladder cancer cell line J82 was purchased from ATCC and was grown in EMEM (ATCC). SW1710 and EJ28 bladder cancer cell lines were purchased from DSMZ and were grown in DMEM (ATCC) and RPMI-1640 (Gibco), respectively. Bladder cancer cell line T24 was purchased from ATCC and grown in McCoy's 5A (Gibco). Bladder cancer cell line BC-3C was purchased from DSMZ and was grown in McCoy's 5A (Gibco). All media were supplemented with 10% FBS (Gemini Bioproducts) and 1% Antibiotic-Antimycotic (Gibco). In the case of MIA PaCa-2, medium was also supplemented with 2.5% horse serum (Gibco). NCM356 colon epithelial cell lines were growth in M3:10 (INCELL, San Antonio, Tex.). A CMV-driven-HDAC9 vector was used to overexpress HDAC9 levels in NCM356 cells. IL1B and TNFA mRNA levels were measured by qPCR analysis as described previously (Fang K et al. Am J Pathol, 188(3):586-99, 2018).
(§2) 1.8×10^3 cells/well were plated in quadruplicates in 96-well plate and treated with exogenously added MJK analogues 6 hours after plating. For the experiments performed to calculate the IC50s of HDAC9 analogues, a secondary treatment of exogenously added MJK analogues was performed 2 days later. Cell growth was assessed 1, 3, 5 or 7 days after plating using the CellTiter Glo Luminescence Cell Viability Assay (Promega) according to manufacturer's protocol. For the experiments where the effect of combinatorial treatment of MJK-004 analogues with chemotherapy was assessed, treatment of cells with gemcitabine (10 nM) or 5-fluouracil (2000 nM) was performed one day after MJK-004 treatment and the cells were further treated with exogenously added MJK analogues 2 days later. Cell growth was assessed 3, 4, 5 or 6 days after plating using the CellTiter Glo Luminescence Cell Viability Assay (Promega) according to manufacturer's protocol. Data are expressed as mean […] (arbitrary units)±S.D.
(§3) Cell Viability Assays were employed to determine the concentration of MJK analogues where the response is reduced by half. For each treatment of cancer cells, 1, 2, 5, 10 and 20 μM of MJK analogues were applied. GraphPad Prism 7 software was used to fit dose response curves. Relative Luciferase Activity Units were plotted against the log values of the doses used and the nonlinear regression model was used for data analysis.
MJK-001 effects on a cancer cell line panel: The effects of MJK-001 (20 uM) on cancer cell growth was evaluated in 9 cancer cell lines, consisting of bladder, colon, lung, prostate and pancreatic cancer cell lines. Cell growth was measured on day 5. Bladder cancer cell lines (RT-112, 5637) were more responsive to MJK-001 treatment, followed by the colon and pancreatic cancer cell lines shown in Table 3.
A general note: In ATP-based viability assays light output follows the ATP content of the culture.

The test system of assay [3] is UMUC9 bladder cancer cells. The assay is described as follows: Cell viability assay (CellTiter Glo), UMUC9. To be noted: for IC50: UM-UC-9. The format is cell-based. The method, then: as §1, §2, §3
The test system of assay [4] is 5637 bladder cancer cell line. The assay is described as follows: Cell viability assay (CellTiter Glo), 5637. The format is cell-based. To be noted: for IC50: 5637 cell growth. The method, then: as §1, with “All media were supplemented with 10% FBS (Gemini Bioproducts) and 1% Antibiotic-Antimycotic (Gibco). In the case of MIA PaCa-2, medium was also supplemented with 2.5% horse serum (Gibco). NCM356 colon epithelial cell lines were growth in M3:10 (INCELL, San Antonio, Tex.). A CMV-driven-HDAC9 vector was used to overexpress HDAC9 levels in NCM356 cells.” left out
as §2, with “For the experiments performed to calculate the IC50s of HDAC9 analogues, a secondary treatment of exogenously added MJK analogues was performed 2 days later.” left out, “units)±S.D. […]” for “units)±S.D.”

[5] abbreviates: Homo sapiens, RT-112 cell growth.

Usually IC50 stands for the concentration that inhibits the measured activity by half. As usually defined, the inhibition is the share of the control response that was lost under treatment.

T1 sequence (P56524 whole entry): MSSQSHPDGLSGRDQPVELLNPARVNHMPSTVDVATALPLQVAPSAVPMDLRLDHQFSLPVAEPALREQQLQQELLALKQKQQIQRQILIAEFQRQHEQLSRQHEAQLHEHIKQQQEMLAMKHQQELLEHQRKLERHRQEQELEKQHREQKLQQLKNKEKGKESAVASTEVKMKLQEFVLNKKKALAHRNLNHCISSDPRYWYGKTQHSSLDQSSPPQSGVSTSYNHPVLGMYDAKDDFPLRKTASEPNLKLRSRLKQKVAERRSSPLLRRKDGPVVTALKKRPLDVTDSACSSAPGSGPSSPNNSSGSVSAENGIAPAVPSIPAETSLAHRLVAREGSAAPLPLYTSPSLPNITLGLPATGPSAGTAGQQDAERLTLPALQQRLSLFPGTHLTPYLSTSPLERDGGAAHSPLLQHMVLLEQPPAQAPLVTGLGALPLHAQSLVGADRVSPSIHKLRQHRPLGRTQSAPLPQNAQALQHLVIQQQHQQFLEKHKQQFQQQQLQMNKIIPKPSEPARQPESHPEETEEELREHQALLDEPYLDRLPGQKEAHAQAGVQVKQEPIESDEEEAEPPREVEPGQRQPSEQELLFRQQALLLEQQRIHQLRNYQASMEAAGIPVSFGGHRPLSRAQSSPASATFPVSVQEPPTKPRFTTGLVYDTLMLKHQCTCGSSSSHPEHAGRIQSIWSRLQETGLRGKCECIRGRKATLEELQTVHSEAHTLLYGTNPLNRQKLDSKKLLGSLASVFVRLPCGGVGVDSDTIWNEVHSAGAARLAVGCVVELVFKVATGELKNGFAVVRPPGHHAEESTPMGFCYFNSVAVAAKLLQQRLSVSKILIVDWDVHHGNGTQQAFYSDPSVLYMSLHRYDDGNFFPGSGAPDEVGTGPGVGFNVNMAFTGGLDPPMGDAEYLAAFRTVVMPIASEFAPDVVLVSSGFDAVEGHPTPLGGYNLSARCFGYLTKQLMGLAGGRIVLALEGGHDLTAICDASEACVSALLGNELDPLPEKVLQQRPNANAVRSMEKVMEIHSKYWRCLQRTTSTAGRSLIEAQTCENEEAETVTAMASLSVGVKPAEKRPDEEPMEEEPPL

Consider `Cl.Cn1c(/C=C/C(=O)NO)ccc1/C=C/C(=O)c1cccnc1` [MJK008, (E)-N-Hydroxy-3-(1-methyl-5-((E)-3-oxo-3-(pyridin-3-yl)prop-1-en-1-yl)-1H-pyrrol-2-yl)ac-rylamide hydrochloride], for which the “HDAC4 activity / specificity” value in assay [1] was “decreased HDAC4 specificity”. The “IC50 (uM) values” in assay [2] (RT-112 cell growth) and in assay [3] (UMUC9 cell growth) was “ns” each time.

With `Cn1c(/C=C/C(=O)NO)ccc1/C=C/C(=O)c1cccnc1` [MJK006, (E)-N-hydroxy-3-(1-methyl-5-((E)-3-oxo-3-(pyridin-3-yl)prop-1-en-1-yl)-1H-pyrrol-2-yl)acrylamide], the “HDAC4 activity / specificity” value in assay [1] is “decreased HDAC4 specificity”. Further, the figures for the concentration for half-maximal inhibition (IC50) in assay [2] (setting [5]), in assay [4] and in assay [3] (UMUC9 cell growth) were 38.3 µM, 1740 µM and 19.8 µM, respectively.

On to `Cn1c(/C=C/C(=O)NO)ccc1/C=C/C(=O)c1cccs1` [MJK004, (E)-N-hydroxy-3-(1-methyl-5-((E)-3-oxo-3-(thiophen-2-yl)prop-1-en-1-yl)-1H-pyrrol-2-yl)acrylamide], for which, in assay [1], the “HDAC4 activity / specificity” value is on record as “high specificity for HDAC4”. For the same compound, the IC50 in assay [2] (setting [5]) stood at 2.37 µM; in assay [4], 7.58 µM; in assay [3] (UMUC9 cell growth) it was 3.97 µM. In addition, the “cell growth, monotherapy” value is listed as “suppressed bladder cancer growth in both cell lines as a monotherapy” in assay [2] (RT-112, days 4 & 5) and “suppressed bladder cancer growth in both cell lines as a monotherapy” in assay [3] (UMUC9, days 4 & 5). For the same compound, the “cell growth, combination with gemcitabine” value in assay [2] (RT-112, gemcitabine 10 nM, days 4 & 5) was “increased gemcitabine's efficacy”; in assay [3] (UMUC9, gemcitabine 10 nM, days 4 & 5) it was “increased gemcitabine's efficacy”.

In the case of `Cn1c(/C=C/C(=O)NO)ccc1/C=C/C(=O)c1cccc(F)c1` [MJK001, (E)-3-(5-((E)-3-(3-Fluorophenyl)-3-oxoprop-1-en-1-yl)-1-methyl-1H-pyrrol-2-yl)-N-hydro-xyacrylamide], in assay [1], the “HDAC4 activity / specificity” value is reported as “partially blocks”. For the same compound, the inhibition at 20 µM in assay [2] (Homo sapiens, RT-112, 120 h, RT112, 20 uM, day 5, read-out: % growth inhibition) is 51%; in assay [4] (120 h, 5637, 20 uM, day 5, read-out: % growth inhibition), 42.1%. Moreover, the IC50 in assay [2] (setting [5]) amounted to 9.15 µM; in assay [3] (UMUC9 cell growth), 7.1 µM.
